# Reference: patent US7968098B2, “HLA-A24-binding KIF-derived peptide” (Kurume University, priority 2006, dated 2011)
# Where two headings read alike, the source gives them in different places.
# Key:
# [1] = tested on: anti-peptide immunoglobulin G (IgG) in plasma; test: Anti-peptide IgG in plasma measured by the Luminex system; assay type: binding, human; conditions: for Positive cases/total cases, Patients: Table 3, IgGs reactive to peptide in plasma of glioma patients; for Positive cases/total cases, Healthy donors: Table 3, IgGs reactive to peptide in plasma of healthy donors; for Positive cases/total cases, Total: Table 3, patients plus healthy donors; for Total (IgG-positive cases/total cases): positive = >1.25 times no peptide control; for Recognition by IgGs in the plasma compared with the other peptides: plasma of glioma patients and healthy donors
# Description: The levels of anti-peptide immunoglobulin G (IgG) were measured by the Luminex™ system as previously reported (Komatsu N et al, Scand J Clin Invest 2004; 64: 1-11). In brief, plasma was incubated with 25 μl of peptide-coupled color-coded beads (Luminex Corp., Austin, Tex., USA) for 2 h at room temperature on a plate shaker. After incubation, the mixture was washed with a vacuum manifold apparatus and incubated with 100 μl of biotinylated goat anti-human IgG (BA-3080, Vector Laboratories, Burlingame, Calif., USA) for 1 h at room temperature. The plate was then washed, and 100 μl of streptavidin-PE (S-866, Molecular Probes, Eugene, Oreg., USA) was added to each well and was incubated for 30 min at room temperature on a plate shaker. The bound beads were washed three times followed by the addition of 100 μl of Tween-PBS to each well. Fifty μl of each sample was then examined using the Luminex™ system.
# Next, the abilities of the KIF-derived peptides to be recognized by IgGs of glioma patients were examined, because IgGs reactive to CTL-directed peptides are detectable in the plasma of patients with different types of cancer (Nakatsura T et al, Eur J Immunol 32: 826-836, 2002), along with that levels of IgG well correlated with clinical responses of patients who received peptide vaccination as reported previously (Mine T et al, Clin Cancer Res 10: 929-937, 2004; Yajima N et al, Clin Cancer Res 11: 5900-5911, 2005). IgGs reactive to a corresponding peptide were judged to be significant when the immunofluorescence intensity in 1:100-diluted plasma exceeded 1.25 times that of the control samples with no peptides. […] Based on these findings, these 8 KIF peptides (3 for KIF1C, 3 for KIF3C, and 2 for KIF21B) were the focus of the following experiments.
# [2] = tested on: PBMCs of HLA-A24+ glioma patients; assay type: cell-based, human; conditions: for IFN-γ: vs HIV peptide
# [3] = Healthy donor 1, 1:100-diluted plasma
# [4] = Healthy donor 2, 1:100-diluted plasma
# [5] = Healthy donor 3, 1:100-diluted plasma
# [6] = Healthy donor 4, 1:100-diluted plasma
# [7] = Healthy donor 5, 1:100-diluted plasma
# [8] = Healthy donor 6, 1:100-diluted plasma
# [9] = Healthy donor 7, 1:100-diluted plasma
# [10] = Healthy donor 8, 1:100-diluted plasma
# [11] = Healthy donor 9, 1:100-diluted plasma
# [12] = glioma Patient 1, 1:100-diluted plasma
# [13] = glioma Patient 2, 1:100-diluted plasma
# [14] = glioma Patient 3, 1:100-diluted plasma
# [15] = glioma Patient 4, 1:100-diluted plasma
# [16] = glioma Patient 5, 1:100-diluted plasma
# [17] = glioma Patient 6, 1:100-diluted plasma
# [18] = glioma Patient 7, 1:100-diluted plasma
# [19] = glioma Patient 8, 1:100-diluted plasma
# [20] = glioma Patient 9, 1:100-diluted plasma
# [21] = glioma Patient 10, 1:100-diluted plasma
# [22] = HLA-A24+ glioma patients, positive = P<0.05 and >100 pg/ml IFN-γ over HIV peptide
# [23] = PBMCs of HLA-A24+ glioma Patient 1, 10 μg/ml peptide
# [24] = PBMCs of HLA-A24+ glioma Patient 2, 10 μg/ml peptide
# [25] = PBMCs of HLA-A24+ glioma Patient 3, 10 μg/ml peptide
# [26] = PBMCs of HLA-A24+ glioma Patient 7, 10 μg/ml peptide
# [27] = PBMCs of HLA-A24+ glioma Patient 9, 10 μg/ml peptide
# [28] = PBMCs of HLA-A24+ glioma Patient 10, 10 μg/ml peptide
# [29] = PBMCs of HLA-A24+ glioma Patient 4, 10 μg/ml peptide
sequence,measurement,setting,value
AFIPGRPML (KIF21B 670-678 peptide),"Positive cases/total cases, Patients",[1],2/10
same,"Positive cases/total cases, Healthy donors",[1],2/10
same,"Positive cases/total cases, Total",[1],4/20
AFIPGRPMLL (KIF21B 670-679 peptide),"Positive cases/total cases, Patients",[1],2/10
same,"Positive cases/total cases, Healthy donors",[1],2/10
same,"Positive cases/total cases, Total",[1],4/20
CYEVALADF (KIF1C 756-764 peptide),Immunofluoresence intensity,[1]; [3],87.3
same,Immunofluoresence intensity,[1]; [4],14.0
same,Immunofluoresence intensity,[1]; [5],46.8
same,Immunofluoresence intensity,[1]; [6],20.0
same,Immunofluoresence intensity,[1]; [7],40.3
same,Immunofluoresence intensity,[1]; [8],47.5
same,Immunofluoresence intensity,[1]; [9],196.0
same,Immunofluoresence intensity,[1]; [10],3893.5
same,Immunofluoresence intensity,[1]; [11],27.0
same,Total (IgG-positive cases/total cases),"[1]; Table 2, glioma patients",0/10
same,Total (IgG-positive cases/total cases),"[1]; Table 2, healthy donors",1/10
same,"Positive cases/total cases, Patients",[1],0/10
same,"Positive cases/total cases, Healthy donors",[1],1/10
same,"Positive cases/total cases, Total",[1],1/20
same,Immunofluoresence intensity,[1]; [12],36.5
same,Immunofluoresence intensity,[1]; [13],45.0
same,Immunofluoresence intensity,[1]; [14],28.8
same,Immunofluoresence intensity,[1]; [15],11.5
same,Immunofluoresence intensity,[1]; [16],58.0
same,Immunofluoresence intensity,[1]; [17],185.8
same,Immunofluoresence intensity,[1]; [18],40.3
same,Immunofluoresence intensity,[1]; [19],6.5
same,Immunofluoresence intensity,[1]; [20],7.5
same,Immunofluoresence intensity,[1]; [21],658.0
EYIRVRQDL (KIF3C 607-615 peptide),"Positive cases/total cases, Patients",[1],2/10
same,"Positive cases/total cases, Healthy donors",[1],3/10
same,"Positive cases/total cases, Total",[1],5/20
GYASTDEEI (KIF21B 220-228 peptide),"Positive cases/total cases, Patients",[1],2/10
same,"Positive cases/total cases, Healthy donors",[1],3/10
same,"Positive cases/total cases, Total",[1],5/20
same,Recognition by IgGs in the plasma compared with the other peptides,[1],more frequently
same,Total (patients with induction of peptide-reactive CTLs),[2]; [22],4/10
same,IFN-γ,[2]; [23],0 pg/mL
same,IFN-γ,[2]; [24],29 pg/mL
same,IFN-γ,[2]; [25],56 pg/mL
same,IFN-γ,[2]; [26],51 pg/mL
same,IFN-γ,[2]; [27],0 pg/mL
same,IFN-γ,[2]; [28],0 pg/mL
GYLIIENFI (KIF3C 629-637 peptide),"Positive cases/total cases, Patients",[1],0/10
same,"Positive cases/total cases, Healthy donors",[1],1/10
same,"Positive cases/total cases, Total",[1],1/20
HYDGIECLAI (KIF21B 621-630 peptide),"Positive cases/total cases, Patients",[1],2/10
same,"Positive cases/total cases, Healthy donors",[1],5/10
same,"Positive cases/total cases, Total",[1],7/20
same,Recognition by IgGs in the plasma compared with the other peptides,[1],more frequently
same,Total (patients with induction of peptide-reactive CTLs),[2]; [22],3/10
same,IFN-γ,[2]; [23],0 pg/mL
same,IFN-γ,[2]; [24],10 pg/mL
same,IFN-γ,[2]; [25],0 pg/mL
same,IFN-γ,[2]; [29],0 pg/mL
same,IFN-γ,[2]; [26],93 pg/mL
same,IFN-γ,[2]; [27],0 pg/mL
same,IFN-γ,[2]; [28],0 pg/mL
IYQEEIRDL (KIF3C 147-155 peptide),"Positive cases/total cases, Patients",[1],0/10
same,"Positive cases/total cases, Healthy donors",[1],1/10
same,"Positive cases/total cases, Total",[1],1/20
IYQEEIRDLL (KIF3C 147-156 peptide),"Positive cases/total cases, Patients",[1],0/10
same,"Positive cases/total cases, Healthy donors",[1],1/10
same,"Positive cases/total cases, Total",[1],1/20
KYCSHSGLVF (KIF21B 473-482 peptide),"Positive cases/total cases, Patients",[1],2/10
same,"Positive cases/total cases, Healthy donors",[1],2/10
same,"Positive cases/total cases, Total",[1],4/20
NYEETLSTL (KIF1C 331-339 peptide),Immunofluoresence intensity,[1]; [3],70.0
same,Immunofluoresence intensity,[1]; [4],13.5
same,Immunofluoresence intensity,[1]; [5],29.0
same,Immunofluoresence intensity,[1]; [6],16.5
same,Immunofluoresence intensity,[1]; [7],35.0
same,Immunofluoresence intensity,[1]; [8],40.0
same,Immunofluoresence intensity,[1]; [9],233.0
same,Immunofluoresence intensity,[1]; [10],4133.0
same,Immunofluoresence intensity,[1]; [11],22.5
same,Immunofluoresence intensity,"[1]; Healthy donor 10, 1:100-diluted plasma",62.5
same,Total (IgG-positive cases/total cases),"[1]; Table 2, glioma patients",0/10
same,Total (IgG-positive cases/total cases),"[1]; Table 2, healthy donors",0/10
same,"Positive cases/total cases, Patients",[1],0/10
same,"Positive cases/total cases, Healthy donors",[1],0/10
same,"Positive cases/total cases, Total",[1],0/20
same,Immunofluoresence intensity,[1]; [12],33.5
same,Immunofluoresence intensity,[1]; [13],39.5
same,Immunofluoresence intensity,[1]; [14],22.0
same,Immunofluoresence intensity,[1]; [15],10.5
same,Immunofluoresence intensity,[1]; [16],53.5
same,Immunofluoresence intensity,[1]; [17],86.5
same,Immunofluoresence intensity,[1]; [18],35.5
same,Immunofluoresence intensity,[1]; [19],8.5
same,Immunofluoresence intensity,[1]; [20],5.5
same,Immunofluoresence intensity,[1]; [21],485.4
NYVPGLTPCL (KIF21B 731-740 peptide),"Positive cases/total cases, Patients",[1],1/10
same,"Positive cases/total cases, Healthy donors",[1],1/10
same,"Positive cases/total cases, Total",[1],2/20
QYLVRASYL (KIF3C 137-145 peptide),"Positive cases/total cases, Patients",[1],2/10
same,"Positive cases/total cases, Healthy donors",[1],1/10
same,"Positive cases/total cases, Total",[1],3/20
RFVPPHDCKL (KIF1C 968-977 peptide),Immunofluoresence intensity,[1]; [3],117.0
same,Immunofluoresence intensity,[1]; [4],23.5
same,Immunofluoresence intensity,[1]; [6],33.0
same,Immunofluoresence intensity,[1]; [7],58.5
same,Immunofluoresence intensity,[1]; [11],32.3
same,Total (IgG-positive cases/total cases),"[1]; Table 2, glioma patients",4/10
same,Total (IgG-positive cases/total cases),"[1]; Table 2, healthy donors",5/10
same,"Positive cases/total cases, Patients",[1],4/10
same,"Positive cases/total cases, Healthy donors",[1],5/10
same,"Positive cases/total cases, Total",[1],9/20
same,Immunofluoresence intensity,[1]; [12],77.0
same,Immunofluoresence intensity,[1]; [15],27.0
same,Immunofluoresence intensity,[1]; [16],97.0
same,Immunofluoresence intensity,[1]; [18],74.8
same,Immunofluoresence intensity,[1]; [19],12.5
same,Immunofluoresence intensity,[1]; [20],19.5
RFYIQMCTEL (Flu virus-derived peptide) [reference compound],Total (patients with induction of peptide-reactive CTLs),[2]; [22],3/10
same,IFN-γ,[2]; [23],29 pg/mL
same,IFN-γ,[2]; [24],0 pg/mL
same,IFN-γ,[2]; [29],0 pg/mL
same,IFN-γ,[2]; [26],95 pg/mL
same,IFN-γ,"[2]; PBMCs of HLA-A24+ glioma Patient 8, 10 μg/ml peptide",0 pg/mL
same,IFN-γ,[2]; [27],0 pg/mL
same,IFN-γ,[2]; [28],0 pg/mL
RYRAENIMFL (KIF3C 702-711 peptide),"Positive cases/total cases, Patients",[1],2/10
same,"Positive cases/total cases, Healthy donors",[1],5/10
same,"Positive cases/total cases, Total",[1],7/20
SYDESLSTL (KIF3C 347-355 peptide),"Positive cases/total cases, Patients",[1],0/10
same,"Positive cases/total cases, Healthy donors",[1],0/10
same,"Positive cases/total cases, Total",[1],0/20
"TYGPVFMCL [EBV, reference compound]",Total (patients with induction of peptide-reactive CTLs),[2],1/10
VYIKDLSSF (KIF3C 174-182 peptide),"Positive cases/total cases, Patients",[1],1/10
same,"Positive cases/total cases, Healthy donors",[1],2/10
same,"Positive cases/total cases, Total",[1],3/20
VYQIPQRRRL (KIF1C 725-734 peptide),Immunofluoresence intensity,[1]; [3],99.5
same,Immunofluoresence intensity,[1]; [4],19.5
same,Immunofluoresence intensity,[1]; [5],66.8
same,Immunofluoresence intensity,[1]; [6],30.5
same,Immunofluoresence intensity,[1]; [7],52.5
same,Total (IgG-positive cases/total cases),"[1]; Table 2, glioma patients",4/10
same,Total (IgG-positive cases/total cases),"[1]; Table 2, healthy donors",5/10
same,"Positive cases/total cases, Patients",[1],3/10
same,"Positive cases/total cases, Healthy donors",[1],5/10
same,"Positive cases/total cases, Total",[1],8/20
same,Immunofluoresence intensity,[1]; [12],65.5
same,Immunofluoresence intensity,[1]; [13],85.3
same,Immunofluoresence intensity,[1]; [14],61.3
same,Immunofluoresence intensity,[1]; [15],19.5
same,Immunofluoresence intensity,[1]; [16],98.5
same,Immunofluoresence intensity,[1]; [19],10.0
same,Immunofluoresence intensity,[1]; [20],9.3
VYRDIGEEML (KIF1C 73-82 peptide),Immunofluoresence intensity,[1]; [4],19.5
same,Immunofluoresence intensity,[1]; [5],64.5
same,Immunofluoresence intensity,[1]; [6],29.5
same,Immunofluoresence intensity,[1]; [7],50.0
same,Total (IgG-positive cases/total cases),"[1]; Table 2, glioma patients",3/10
same,Total (IgG-positive cases/total cases),"[1]; Table 2, healthy donors",6/10
same,"Positive cases/total cases, Patients",[1],3/10
same,"Positive cases/total cases, Healthy donors",[1],6/10
same,"Positive cases/total cases, Total",[1],9/20
same,Immunofluoresence intensity,[1]; [12],57.8
same,Immunofluoresence intensity,[1]; [13],80.5
same,Immunofluoresence intensity,[1]; [14],46.8
same,Immunofluoresence intensity,[1]; [15],17.5
same,Immunofluoresence intensity,[1]; [18],68.5
same,Immunofluoresence intensity,[1]; [19],11.5
same,Immunofluoresence intensity,[1]; [20],11.0
